Here are results for eleven molecules from patent publication US20260137698A1, “CYCLIN-DEPENDENT KINASE 7 INHIBITORS” (JOINT STOCK COMPANY «BIOCAD», priority 2022, published 2026).

The nature of data set [1]: General cytotoxicity on primary differentiated HepaRG cells (72 h). It counts as cell-based. As to conditions: human, general toxicity, mean value from several measurements. From the text: General cytotoxicity of CDK7 inhibitors according to the present invention was investigated using primary differentiated HepaRG cells (Biopredic Int, order no. HPR101). A week before the measurement, the cells were thawed and maintained in Basal hepatic cell medium (Biopredic Int, order no. MIL700079) supplemented with HepaRG maintenance/metabolism medium supplement with antibiotics (Biopredic Int, order no. ADD620C). The medium in vials with cells was changed every 2-3 days. The night before the test, the cells were plated in wells of 96-well plates (Corning Inc., order no. 3599) at 25×10^3 cells in 100 μl of medium per well. The next day, test compounds were introduced into plate wells with cells, untitrated at a concentration ranging from 200 μM to 0.2 nM, and incubated for 72 hours. Cell viability was assessed as described above.

Data set [2] has as its system MDA-MB-468 (triple negative breast cancer). Description: Antiproliferative assay on MDA-MB-468 cells (AlamarBlue, 96 h). It counts as cell-based. As to conditions: Homo sapiens, mean value from several measurements. As to the method:
The antiproliferative activity of CDK7 inhibitors according to the present invention was evaluated in a cell test using continuous cell cultures: MDA-MB-468 (triple negative breast cancer, ATCC® HTB-132™) and NCl-H82 (small cell lung cancer, ATCC® HTB-175™) using a viable AlamarBlue dye (Thermo Fisher Scientific Inc, order no. DAL1100). The cells were grown in DMEM (PanEco, order no. C330π) and RPMI-1640 (PanEco, order no. C330π), respectively. The basal growth medium was enriched with L-glutamine at a concentration of 2 mM (PanEco, order no. Φ032) and 10% fetal bovine serum (Gibco, order no. 16140-071). The night before measurement, MDA-MB-468 adherent cells were detached from plastic with a solution of trypsin-EDTA (PanEco, order no. Π039π), the solution was then inactivated by a DMEM complete medium, centrifuged at 1000 RPM (Eppendorf, 5804 R), a suspension of cells was prepared in a DMEM complete medium, introduced into 96-well culture plates (Corning Inc, order no. 3599) at 8×10^3 cells in 100 μl of medium per well. The next day, test compounds were dissolved in DMSO and diluted with a DMEM complete medium to a final concentration ranging from 50 μM to 10 pM. Diluted compounds in a volume of 50 μl were introduced into the plate wells with cells in triplicates (the final concentration of DMSO was no more than 1%) and incubated at 37° C. in an incubator with 5% CO2 for 96 hours. NCl-H82 suspension cell line was prepared on the day of the analysis. 10×10^3 cells in 100 μl of an RPMI-1640 complete medium were added to each well of a 96-well plate. The procedure for sample dilution is as described above. Cells with test compounds were incubated at 37° C. in an incubator with 5% CO2 for 120 hours. Following incubation, […] of AlamarBlue reagent (Thermo Fisher Scientific Inc., order no. DAL1100) was added to the wells, the contents of the plates were stirred in an orbital shaker (Biosan, Latvia), then further incubated for 5.5-6 hours at 37° C. in an incubator with 5% CO2. The number of viable cells was detected using the Infinite M200Pro microplate spectrophotometer (Tecan Group Ltd, Switzerland) by way of measuring a fluorescent signal at an excitation wavelength (λEx) of 540 nm and an emission wavelength (λEm) of 590 nm.
IC50 value was calculated using the Magellan software (Tecan Group Ltd, Switzerland) by approximating experimental points by four-parameter model with the optimization by Levenberg-Marquardt: […]
For orientation: Alamar Blue is a resazurin reagent that responds to reducing activity.

The nature of data set [3]: Passive membrane permeability through PAMPA artificial membrane, pH 7.4. The format is in vitro ADME. As to conditions: pH 7.4, 10 μmol, 20 hours at room temperature, mean of multiple measurements, read-out: PAMPA passive permeability Pe. As to the method: Passive membrane permeability of the compounds described in the present invention was determined using the PAMPA (parallel artificial membrane permeability assay) model at pH 7.4.
We used a 96-well plate (Corning® BioCoat® Pre-coated PAMPA Plate System, order no. 353015), composed of acceptor and donor parts with cell membrane-modeling PVDF filter pre-impregnated with a lecithin-phospholipid bilayer. The substance (at a concentration of 10 μmol) in a 0.01 M phosphate buffer with pH 7.4 was introduced into a donor well of the plate, and pure buffer was introduced into an acceptor well; afterwards, the both parts were combined and incubated for 20 hours at room temperature so that the compound was redistributed between the two wells and the membrane. Verapamil (USP, USA, order no. 1711202) and propranolol (MCE LLC, USA, cat. no. HY-B0573/CS-2680) were used as control compounds with high and medium permeability. Samples were analyzed by reversed-phase HPLC with UV detection (Agilent 1260 chromatograph with UV detector) by determining their peak areas in the donor and acceptor wells.
Permeability (Pe, cm/s) and retention factor (R, %) in the lipid bilayer were calculated using the formula:
[formula] [formula] • Co is donor-well concentration of the substance at the initial moment of time t (μM); • CA (t) is acceptor-well concentration of the substance at time t (μM); • Vd is donor-well volume (0.3 ml); • Va is acceptor-well volume (0.15 ml).
[formula] • A is filter area (0.3 cm^2); • t is incubation time (72000 s);

Another data set has as its target CDK7/Cyclin H/MNAT1 (Homo sapiens, UniProt P50613). Nature of the data set: Inhibition of CDK7/Cyclin H/MNAT1 kinase activity (ADP-Glo). It counts as biochemical. As to conditions: mean value from several measurements; read-out: IC50 CDK7/Cyclin H/MNAT. As to the method:
(§1) Measurements were carried out in a 5 μl reaction volume using a 384-well plate (Corning Inc., order no. 4513). The analyzed substances were titrated from 50 μM in increments of 4 at 11 concentration points in a normal strength kinase buffer A (Thermo Fisher Scientific Inc, cat. no. PV3189) supplemented with DTT (Sigma, orde. no. 646563-10X.5ML) and prepared with water (Panreac, order no. 701074). Kinase was diluted in an analogous buffer, mixed with test compounds in plate wells and preincubated for 10 minutes at 25° C. Following incubation, a mixture of reaction substrate (CDKtide (SignalChem, order no. C06-58) or Histone H1 (SignalChem, order no. H10-54N) or PDKtide (SignalChem, order no. P10-58) and ATP (SignalChem, order no. V915B) prepared on a normal strength kinase buffer A was added. 1% solution of dimethyl sulfoxide (DMSO) (Sigma-Aldrich, order no. D2438) in the reaction volume was used as a negative control. The final concentrations of all reaction components are shown in Table 5. The plate was centrifuged at 400 rcf (Eppendorf, 5804 R) for 1 minute and incubated for 40-60 minutes at 25° C. The amount of ATP consumed in the kinase reaction was then measured using the ADP-Glo™ detection system. Luminescence signal was measured using Spark 20M tablet multifunction reader (Tecan Group Ltd, Switzerland). IC50 value was calculated using Magellan 7.2 (Tecan Group Ltd, Switzerland) by approximating experimental points by four-parameter model with the optimization by Levenberg-Marquardt:
(§2) [formula] • where A is the upper asymptote; D is the lower asymptote; C is IC50, half-maximal inhibitory concentration of kinase, nM; B is the curvature (slope).
Background: In ADP-Glo the light output rises with the ADP produced.

A further data set concerns the target CDK2/Cyclin A (Homo sapiens, UniProt P24941). Nature of the data set: Inhibition of CDK2/Cyclin A kinase activity (ADP-Glo). The format is biochemical. The settings on record: mean value from several measurements; read-out: IC50 CDK2/Cyclin A. As for the experimental part:
as §1, §2

For the next data set, the target named is CDK9/Cyclin K (Homo sapiens, UniProt P50750). Nature of the data set: Inhibition of CDK9/Cyclin K kinase activity (ADP-Glo). It counts as biochemical. As to conditions: mean value from several measurements; read-out: IC50 CDK9/Cyclin K. As for the experimental part: as §1, §2

pIC50: −log10 of the molar value.

Sequence of CDK7/Cyclin H/MNAT1 (P50613 whole entry): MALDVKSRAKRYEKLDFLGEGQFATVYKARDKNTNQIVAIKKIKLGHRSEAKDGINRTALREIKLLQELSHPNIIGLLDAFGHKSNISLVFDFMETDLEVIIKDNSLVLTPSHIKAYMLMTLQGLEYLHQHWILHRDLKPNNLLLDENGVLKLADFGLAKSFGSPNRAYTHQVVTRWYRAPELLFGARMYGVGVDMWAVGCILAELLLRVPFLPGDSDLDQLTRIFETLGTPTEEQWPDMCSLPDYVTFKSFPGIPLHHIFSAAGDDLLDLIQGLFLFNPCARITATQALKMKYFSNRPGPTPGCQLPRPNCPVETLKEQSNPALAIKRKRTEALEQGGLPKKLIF
Sequence of CDK7/Cyclin H/MNAT1 (P51946 whole entry partner): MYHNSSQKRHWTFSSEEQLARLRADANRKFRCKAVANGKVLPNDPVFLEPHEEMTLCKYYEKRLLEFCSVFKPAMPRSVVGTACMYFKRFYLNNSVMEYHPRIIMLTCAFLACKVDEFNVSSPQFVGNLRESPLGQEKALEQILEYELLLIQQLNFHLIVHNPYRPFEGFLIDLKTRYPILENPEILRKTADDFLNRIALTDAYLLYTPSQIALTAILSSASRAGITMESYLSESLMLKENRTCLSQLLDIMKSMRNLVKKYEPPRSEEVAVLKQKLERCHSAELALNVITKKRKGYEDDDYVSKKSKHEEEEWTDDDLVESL
Sequence of CDK7/Cyclin H/MNAT1 (P51948 whole entry partner): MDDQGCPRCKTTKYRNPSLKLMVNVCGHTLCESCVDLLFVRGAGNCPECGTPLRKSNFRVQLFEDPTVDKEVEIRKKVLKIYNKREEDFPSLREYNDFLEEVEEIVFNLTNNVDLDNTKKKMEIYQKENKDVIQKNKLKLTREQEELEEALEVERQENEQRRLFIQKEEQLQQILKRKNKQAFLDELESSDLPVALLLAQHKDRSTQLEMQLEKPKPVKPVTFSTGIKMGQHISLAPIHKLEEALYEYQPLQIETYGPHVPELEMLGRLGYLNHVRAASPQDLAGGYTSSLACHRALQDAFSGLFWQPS
Sequence of CDK9/Cyclin K (P50750 whole entry): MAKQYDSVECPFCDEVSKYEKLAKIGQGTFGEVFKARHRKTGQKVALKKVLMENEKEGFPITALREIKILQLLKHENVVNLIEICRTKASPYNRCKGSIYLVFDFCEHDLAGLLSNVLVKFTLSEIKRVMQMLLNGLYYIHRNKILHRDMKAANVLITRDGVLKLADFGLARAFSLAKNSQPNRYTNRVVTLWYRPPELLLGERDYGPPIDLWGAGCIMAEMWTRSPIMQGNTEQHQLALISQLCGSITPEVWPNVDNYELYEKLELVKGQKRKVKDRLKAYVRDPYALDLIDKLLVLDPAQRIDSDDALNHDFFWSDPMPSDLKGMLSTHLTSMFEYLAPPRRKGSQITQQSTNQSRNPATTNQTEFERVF
Sequence of CDK9/Cyclin K (O75909 whole entry partner): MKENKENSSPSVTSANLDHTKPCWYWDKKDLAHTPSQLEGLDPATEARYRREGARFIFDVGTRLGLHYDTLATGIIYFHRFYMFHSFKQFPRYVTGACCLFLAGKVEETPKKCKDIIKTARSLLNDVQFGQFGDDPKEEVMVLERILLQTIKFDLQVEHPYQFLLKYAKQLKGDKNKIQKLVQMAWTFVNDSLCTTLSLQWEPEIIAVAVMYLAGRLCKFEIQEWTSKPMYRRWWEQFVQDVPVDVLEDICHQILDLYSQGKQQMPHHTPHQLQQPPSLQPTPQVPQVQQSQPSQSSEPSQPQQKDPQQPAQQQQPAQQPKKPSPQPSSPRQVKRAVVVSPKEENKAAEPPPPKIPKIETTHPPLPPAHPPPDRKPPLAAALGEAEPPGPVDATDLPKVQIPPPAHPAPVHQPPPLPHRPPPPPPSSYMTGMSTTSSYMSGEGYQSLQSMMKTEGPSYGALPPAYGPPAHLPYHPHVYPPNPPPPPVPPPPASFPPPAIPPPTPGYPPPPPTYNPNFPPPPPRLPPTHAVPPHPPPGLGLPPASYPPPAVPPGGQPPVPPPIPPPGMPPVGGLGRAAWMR

`FC(F)(F)c1cnc(N[C@H]2CCCNC2)nc1-n1nnc2ccccc21` [CDK7_811, 4-(1H-1,2,3-benzotriazol-1-yl)-N-[(3S)-piperidin-3-yl]-5-(trifluoromethyl)py-rimidin-2-amine]: the CC50 at 72 h in data set [1] was in the range of 500 to 2000 nM. For the same molecule, the pIC50 in data set [2] was 6.00 to 7.00; on CDK7/Cyclin H/MNAT1, 7.30 to 8.30; on CDK2/Cyclin A, less than 6.70. In addition, the Papp at 20 h, 10 μmol in data set [3] was in the range of 5 to 10 ×10⁻⁶ cm/s.

Regarding `O=c1c2[nH]cc(-c3nc(N[C@H]4CCCNC4)ncc3C(F)(F)F)c2ccn1C1CCOCC1` [CDK7_1121], the CC50 at 72 h in data set [1] is greater than 2000 nM. Further, the Papp at 20 h, 10 μmol in data set [3] was less than 1 ×10⁻⁶ cm/s.

As for `O=C(NC1CCOCC1)c1cc(-c2nc(N[C@H]3CCCNC3)ncc2C(F)(F)F)c[nH]1` [CDK7_850, N-(oxan-4-yl)-4-(2-{[(3S)-piperidin-3-yl]amino}-5-(trifluoromethyl)pyrimidin-4-yl)-1H-pyrrole-2-carboxamide], the pIC50 at CDK9/Cyclin K is 6.70 to 7.30; in data set [2], 6.00 to 7.00; on CDK7/Cyclin H/MNAT1 it was 7.30 to 8.30; at CDK2/Cyclin A, less than 6.70. This molecule also yielded a half-maximal cytotoxic concentration (CC50) at 72 h in data set [1] greater than 2000 nM.

Take `O=C(NCc1ccccc1)c1cc(-c2nc(N[C@H]3CCCNC3)ncc2C(F)(F)F)c[nH]1` [CDK7_997, N-benzyl-4-(2-{[(3S)-piperidin-3-yl]amino}-5-(trifluoromethyl)pyrimidin-4-yl)-1H-pyrrole-2-carboxamide]: the pIC50 was 6.70 to 7.30 at CDK9/Cyclin K, 6.00 to 7.00 in data set [2], 7.30 to 8.30 on CDK7/Cyclin H/MNAT1 and less than 6.70 on CDK2/Cyclin A. This molecule had a CC50 at 72 h in data set [1] of 500 to 2000 nM.

On to `O=C(NCC(F)(F)F)c1cc(-c2nc(N[C@H]3CCCNC3)ncc2C(F)(F)F)c[nH]1` [CDK7_847, 4-(2-{[(3S)-piperidin-3-yl]amino}-5-(trifluoromethyl)pyrimidin-4-yl)-N-(2,2,2-trifluoroethyl)-1H-pyrrole-2-carboxamide], for which the pIC50 is 7.30 to 8.30 at CDK9/Cyclin K, 7.00 to 8.00 in data set [2], 7.30 to 8.30 on CDK7/Cyclin H/MNAT1 and less than 6.70 at CDK2/Cyclin A. In data set [1], this molecule yielded a CC50 at 72 h of 100 to 500 nM.

For the molecule `O=C(Nc1ncc[nH]1)c1cc(-c2nc(N[C@H]3CCCNC3)ncc2C(F)(F)F)c[nH]1` [CDK7_833, N-(1H-imidazol-2-yl)-4-(2-{[(3S)-piperidin-3-yl]amino}-5-(trifluoromethyl)pyrimidin-4-yl)-1H-pyrrole-2-carboxamide], the pIC50 is 6.70 to 7.30 at CDK9/Cyclin K, 6.00 to 7.00 in data set [2], 7.30 to 8.30 at CDK7/Cyclin H/MNAT1 and less than 6.70 at CDK2/Cyclin A. The CC50 at 72 h in data set [1] was in the range of 500 to 2000 nM.

With `N#Cc1ccc(NC(=O)c2cc(-c3nc(N[C@H]4CCCNC4)ncc3C(F)(F)F)c[nH]2)cc1` [CDK7_837, N-(4-cyanophenyl)-4-(2-{[(3S)-piperidin-3-yl]amino}-5-(trifluoromethyl)pyrimidin-4-yl)-1H-pyrrole-2-carboxamide], the pIC50 at CDK9/Cyclin K is less than 6.70; in data set [2] it was 6.00 to 7.00; at CDK7/Cyclin H/MNAT1, 6.70 to 7.30; on CDK2/Cyclin A, less than 6.70. Moreover, the 50% cytotoxic concentration (CC50) at 72 h in data set [1] lay within 500 to 2000 nM.

On to `Cc1ccc(P(C)(C)=O)c(Nc2nc(N[C@H]3CCCNC3)ncc2C(F)(F)F)c1` [CDK7_903, N4-[2-(dimethylphos-phoryl)-5-methylphenyl]-N2-[(3S)-piperidin-3-yl]-5-(trifluoromethyl) pyrimidine-2,4-diamine], for which the pIC50 is less than 6.70 at CDK9/Cyclin K, 7.30 to 8.30 at CDK7/Cyclin H/MNAT1 and less than 6.70 on CDK2/Cyclin A. Also, in data set [3], the Papp at 20 h, 10 μmol is less than 1 ×10⁻⁶ cm/s.

For the molecule `CN1CCC(=O)c2c(-c3nc(N[C@H]4CCCNC4)ncc3C(F)(F)F)c[nH]c2C1=O` [CDK7_1021, 7-methyl-3-(2-{[(3S)-piperidin-3-yl]amino}-5-(trifluoromethyl)py-rimidin-4-yl)-1H,4H,5H,6H,7H, 8H-pyrrolo[2,3-c]azepine-4,8-dione], the pIC50 on CDK9/Cyclin K was less than 6.70; on CDK7/Cyclin H/MNAT1, 7.30 to 8.30; at CDK2/Cyclin A, 7.30 to 8.30. The molecule further had a CC50 at 72 h in data set [1] greater than 2000 nM. In addition, the Papp at 20 h, 10 μmol in data set [3] was less than 1 ×10⁻⁶ cm/s.

`CNC(=O)c1cc(-c2nc(N[C@H]3CCCNC3)ncc2C(F)(F)F)c[nH]1` [CDK7_846, N-methyl-4-(2-{[(3S)-piperidin-3-yl]amino}-5-(trifluoromethyl)pyrimidin-4-yl)-1H-pyrrole-2-carboxamide]: the pIC50 on CDK9/Cyclin K was 7.30 to 8.30; in data set [2], 7.00 to 8.00; at CDK7/Cyclin H/MNAT1, 7.30 to 8.30; on CDK2/Cyclin A, less than 6.70. The CC50 at 72 h in data set [1] lay within 500 to 2000 nM.

With `O=C(Nc1nccs1)c1cc(-c2nc(N[C@H]3CCCNC3)ncc2C(F)(F)F)c[nH]1` [CDK7_834, 4-(2-{[(3S)-piperidin-3-yl]amino}-5-(trifluoromethyl)pyrimidin-4-yl)-1N-(1,3-thiazol-2-yl)-1H-pyrrole-2-carboxamide], the pIC50 was 7.30 to 8.30 on CDK9/Cyclin K, 7.00 to 8.00 in data set [2], 7.30 to 8.30 at CDK7/Cyclin H/MNAT1 and less than 6.70 on CDK2/Cyclin A. In data set [1], this molecule came in with a CC50 at 72 h of 100 to 500 nM.

For orientation: CC50 means the concentration giving 50% cytotoxicity.
